Earlier results as cited in patent US20050208134A1, “Biocompatible polymeric beads and use thereof” (priority 2004, published 2005).

Conditions: humans, administered orally

In the case of O=C(CC1NCCCC1O)Cn1cnc2cc(Br)c(Cl)cc2c1=O (stereo not shown) [halofuginone], the “maximum tolerated dose with no adverse effects observed” value is given as 1 mg/day.
